“Also recorded” adds a separate entry of the source.
Columns and labels:
[1] = biological target: poly(ADP-ribose) polymerase (PARP) [ポリ(ADP−リボース)ポリメラーゼ] (Homo sapiens, UniProt P09874); conditions: cited from earlier work
[2] = Solubility of compound A in water at various pH values (5℃, 24 h, HPLC); format: physicochemical
[3] = pH of supernatant of aqueous suspension of compound A; format: physicochemical

Sequence of poly(ADP-ribose) polymerase (PARP) [ポリ(ADP−リボース)ポリメラーゼ] (P09874 whole entry): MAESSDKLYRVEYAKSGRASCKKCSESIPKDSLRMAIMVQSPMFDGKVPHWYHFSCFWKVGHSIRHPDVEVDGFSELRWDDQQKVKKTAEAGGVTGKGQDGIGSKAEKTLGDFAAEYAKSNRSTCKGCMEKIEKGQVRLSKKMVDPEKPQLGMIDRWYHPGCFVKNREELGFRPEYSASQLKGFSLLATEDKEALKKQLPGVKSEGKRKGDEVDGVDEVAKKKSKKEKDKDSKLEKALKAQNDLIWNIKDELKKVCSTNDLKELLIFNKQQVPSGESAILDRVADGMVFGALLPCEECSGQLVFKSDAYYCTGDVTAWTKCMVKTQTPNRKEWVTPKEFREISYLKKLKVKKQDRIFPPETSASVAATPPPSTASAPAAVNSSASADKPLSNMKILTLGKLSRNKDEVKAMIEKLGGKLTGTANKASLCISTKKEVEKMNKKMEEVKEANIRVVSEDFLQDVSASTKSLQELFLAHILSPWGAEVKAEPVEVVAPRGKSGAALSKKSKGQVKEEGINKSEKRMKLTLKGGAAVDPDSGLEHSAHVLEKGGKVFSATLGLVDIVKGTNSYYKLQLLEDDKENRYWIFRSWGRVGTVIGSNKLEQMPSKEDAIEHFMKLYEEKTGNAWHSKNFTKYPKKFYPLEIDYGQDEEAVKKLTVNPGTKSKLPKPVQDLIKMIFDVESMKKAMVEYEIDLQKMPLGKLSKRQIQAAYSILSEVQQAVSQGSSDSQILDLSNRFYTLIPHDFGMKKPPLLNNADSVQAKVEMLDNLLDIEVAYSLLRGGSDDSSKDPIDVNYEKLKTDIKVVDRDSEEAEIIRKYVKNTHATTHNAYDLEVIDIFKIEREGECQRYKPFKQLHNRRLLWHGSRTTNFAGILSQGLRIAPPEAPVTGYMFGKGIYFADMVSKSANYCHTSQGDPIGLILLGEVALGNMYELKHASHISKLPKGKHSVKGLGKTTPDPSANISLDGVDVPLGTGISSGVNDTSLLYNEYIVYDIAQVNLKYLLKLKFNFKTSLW

For `O=C(Cc1n[nH]c(=O)c2c1CCCC2)NCCCCN1CCOCC1` [化合物A, 4−(N−(4−(モルホリン−4−イル)ブチル)カルバモイルメチル)−5,6,7,8−テトラヒドロフタラジン−1(2H)−オン], the toxicity (Toxicity of compound A) is given as “非常に低い”, the PARP inhibitory activity [1] is given as “阻害活性を有する; also recorded: PARP阻害活性を有する” and the dissolution in water ([2]; near neutral (e.g. pH 6 or above)) is given as “速やかに水に溶解せず”. The solubility in water ([2]; pH 8 or above) was “低い”, the dissolution in water ([2]; pH about 5 or below) was “速やかに水に溶解する” and the solubility in water ([2]; pH about 7 or below (adjusted)) was “著しく上昇; also recorded: 著しく向上”. The solubility in water ([2]; water) was “極めて低く” and the “pH of supernatant of aqueous suspension” value [3] was roughly 9.4.
